The subject of one data set is male Sprague-Dawley rats. The experiment in a line: In vivo microdialysis of frontal cortex 5-HT (enhancement of SSRI activity). The arrangement: species or system rat. The following applies: acute fluoxetine alone, 30 mg/kg s.c. Here is the method:
The ability of the compounds of this invention to reduce time for onset of action of the representative SSRI fluoxetine was assessed using in vivo microdialysis. Using 2-3% halothane anesthesia (Fluothane; Zeneca, Cheshire, UK), male Sprague-Dawley rats (280-350 g; Charles River, Wilmington, Mass.) were secured in a stereotaxic frame with ear and incisor bars (David Kopf, Tujunga, Calif.) while a microdialysis guide cannula (CMA/12, CMA Microdialysis, Sweden) was directed above the dorsal lateral frontal cortex (A/P+3.2 mm, M/L−3.5 mm, D/L−1.3 mm). Coordinates were taken with a flat skull using the rat brain atlas of Paxinos and Watson (1986). […]
For in vivo neurochemical experiments, a microdialysis probe (CMA/12; active membrane length 2 mm; OD 0.5 mm; 20 kD cut-off) was pre-washed with artificial CSF (aCSF; 125 mM NaCl, 3 mM KCl, 0.75 mM MgSO4 and 1.2 mM CaCl2, pH 7.4) according to the manufacturers specifications. […] Subsequent microdialysis samples were collected for 3 h post-injection and analyzed for 5-HT content by high performance liquid chromatography (HPLC). […] Subsequent sample values were expressed as a percent change from this preinjection baseline value (or % change from baseline). Neurochemical data, excluding preinjection values, were analyzed by a two-way analysis of variance (ANOVA) with repeated measures (time). […]

The subject of data set [1] is sexually experienced male rats (Sprague-Dawley rats). Kind of data set: Animal model of SSRI-induced sexual dysfunction (non-contact penile erections). Type of data set: in vivo, rat. Here is the method:
The animal model is based on the finding that sexually experienced rats that are administered an SSRI, a drug used to treat certain conditions such as depression, display a reduction in the number of non-contact penile erections. SSRI treatment is associated with sexual dysfunction in human subjects. In general, the animal model exposes sexually experienced male rats (Sprague-Dawley rats) to female rats in estrous in a novel testing arena that is not the regular housing environment. The number of non-contact penile erections is assayed over a specified test period, e.g., 30 minutes (Sukoff, Rizzo, et al., 2006, Society for Neurosci. Abstr. 559.4; U.S. Application Ser. No. 60/682,3379, filed May 19, 2005). In the experiments described herein, animals were generally treated either with 0.9% saline (vehicle) or a drug (i.e., a compound of the invention) in the vehicle.
The ability of fluoxetine, an SSRI associated with sexual dysfunction in humans, to cause sexual dysfunction in the animal model was tested by examining a 10 mg/kg dose of fluoxetine or vehicle alone (0.9% saline), each administered intraperitoneally, once daily for 14 days, on the number of non-contact penile erections over a 30 minute trial period.
To examine the time course of the effects of a drug that causes sexual dysfunction, rats that were handled and tested as described above were treated acutely: rats were treated with vehicle for 6 days, and on the test day (day 7) instead of vehicle, the animals received a single dose of fluoxetine in vehicle (i.p.). For a subchronic (7 day) study, fluoxetine was administered each day for 7 days and the animals were evaluated on test day 7. For the chronic 14 day study, fluoxetine was administered each day for 14 days and the animals were tested on day 14. Each fluoxetine dose was 10 mg/kg in vehicle and was delivered i.p. on each of the test days as described above. The testing session for each section of the study was begun immediately following compound administration and the behavior observed for 30 minutes immediately following the drug administration. […]

For data set [2], the target named is T1, human 5-HT1A receptor (Homo sapiens, UniProt P08908).
T1 construct: expressed in transfected cells
T1 sequence (P08908 1-422): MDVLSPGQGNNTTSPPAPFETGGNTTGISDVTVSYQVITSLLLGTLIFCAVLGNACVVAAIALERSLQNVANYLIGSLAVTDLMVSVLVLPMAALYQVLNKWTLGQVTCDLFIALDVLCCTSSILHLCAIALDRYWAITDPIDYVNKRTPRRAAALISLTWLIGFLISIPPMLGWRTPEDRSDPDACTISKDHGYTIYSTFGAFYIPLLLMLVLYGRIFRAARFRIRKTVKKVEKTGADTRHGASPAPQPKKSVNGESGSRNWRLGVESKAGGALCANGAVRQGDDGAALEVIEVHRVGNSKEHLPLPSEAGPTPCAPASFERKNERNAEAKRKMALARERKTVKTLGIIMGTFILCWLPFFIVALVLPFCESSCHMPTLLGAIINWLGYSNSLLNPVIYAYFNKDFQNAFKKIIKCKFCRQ
The experiment in a line: cAMP measurements, agonist mode: inhibition of forskolin-induced increase in cAMP. Type of data set: cell-based. The following applies: forskolin 1 uM, 5-HT1A.CHO cells. Here is the method: The PCR cloning of the human 5-HT1A receptor subtype from a human genomic library has been described previously (Chanda et al., Mol. Pharmacol., 43:516 (1993)). A stable Chinese hamster ovary cell line expressing the human 5-HT1A receptor subtype (5-HT1A.CHO cells) was employed throughout this study. Cells were maintained in DMEM supplemented with 10% fetal calf serum, non-essential amino acids and penicillin/streptomycin.
Measurements were performed as described in Dunlop, J. et al., supra. Assays were performed by incubating the cells with DMEM containing 25 mM HEPES, 5 mM theophylline and 10 μM pargyline for a period of 20 minutes at 37° C. Functional activity was assessed by treating the cells with forskolin (1 uM final concentration) followed immediately by test compound (6 different concentrations) for an additional 10 minutes at 37° C. In separate experiments, 6 concentrations of antagonist were preincubated for 20 min prior to the addition of 10 nM 8-OH-DPAT and forskolin. The reaction was terminated by removal of the media and addition of 0.5 ml ice cold assay buffer. Plates were stored at −20° C. prior to assessment of cAMP formation by a cAMP SPA assay (Amersham). […]

Data set [3] concerns the target T1, human 5-HT1A receptor. The experiment in a line: Radioligand binding with [3H]8-OH-DPAT on membranes of 5-HT1A.CHO cells. The following applies: [3H]8-OH-DPAT 1.5 nM, 5-HT1A.CHO cell membranes; read-out: 5-HT1A Affinity Ki. Here is the method:
The PCR cloning of the human 5-HT1A receptor subtype from a human genomic library has been described previously (Chanda et al., Mol. Pharmacol., 43:516 (1993)). A stable Chinese hamster ovary cell line expressing the human 5-HT1A receptor subtype (5-HT1A.CHO cells) was employed throughout this study. Cells were maintained in DMEM supplemented with 10% fetal calf serum, non-essential amino acids and penicillin/streptomycin. Radioligand binding assays were performed as described in Dunlop, J. et al., J. Pharmacol. and Toxicol. Methods 40: 47-55 (1998), which is incorporated by reference. Cells were grown to 95-100% confluency as a monolayer before membranes were harvested for binding studies. Cells were gently scraped from the culture plates, transferred to centrifuge tubes, and washed twice by centrifugation (2000 rpm for 10 min., 4° C.) in buffer (50 mM Tris; pH 7.5). The resulting pellets were aliquoted and placed at −80° C. On the day of assay, the cells were thawed on ice, and resuspended in buffer. Studies were conducted using [^3H]8-OH-DPAT as the radioligand. The binding assay was performed in 96 well microtiter plates in a final total volume of 250 μL of buffer. Competition experiments were performed by using seven different concentrations of unlabelled drug and a final ligand concentration of 1.5 nM. Non-specific binding was determined in the presence of 10 μM 5HT. Saturation analysis was conducted by using [^3H]8-OH-DPAT at concentrations ranging from 0.3-30 nM. Following a 30 minute incubation at room temperature, the reaction was terminated by the addition of ice cold buffer and rapid filtration using a M-96 Brandel Cell Harvester (Gaithersburg, Md.) through a GF/B filter presoaked for 30 minutes in 0.5% polyethyleneimine. Table 1 provides Ki values for the tested compounds.

Data on three molecules can be found in patent US7671056B2, “Piperazine-piperidine antagonists and agonists of the 5-HT1A receptor” (Wyeth LLC, priority 2005, dated 2010).

For `CNCCC(Oc1ccc(C(F)(F)F)cc1)c1ccccc1` (centres unmarked) [fluoxetine], in the data set with male Sprague-Dawley rats, the “frontal cortex serotonin levels” value is recorded as “did not increase serotonin levels”. Further, the “sexual function (number of non-contact penile erections over 30 minutes)” value in data set [1] (10 mg/kg i.p. each day for 7 days (sub-chronic)) is listed as “significant increase in sexual dysfunction”; in data set [1] (10 mg/kg i.p. once daily for 14 days (chronic), vs vehicle), “significant increase in sexual dysfunction”; in data set [1] (10 mg/kg i.p. once daily for 14 days (chronic), vs vehicle, listed as Fluoxetine) it was “decrease in sexual function”.
For the molecule `Fc1ccc(N2CCC(N3CCN(c4cccc5cccnc45)CC3)CC2)c2ncccc12` [C, 5-fluoro-8-{4-[4-(8-quinolinyl)-1-piperazinyl]-1-piperidinyl}-quinoline], on human 5-HT1A receptor [2], the EC50 was 6.85 nM. In addition, the Ki at human 5-HT1A receptor [3] turned out to be 0.24 nM.
For `c1cc2c(c(N3CCN(C4CCN(c5cccc6cccnc56)CC4)CC3)c1)OCCO2` [E, 8-{4-[4-(2,3-dihydro-1,4-benzo[1,4]dioxane-5-yl)-1-piperazinyl]-1-piperidinyl}quinoline], on human 5-HT1A receptor [2], the EC50 worked out at 2.4 nM. Further, at human 5-HT1A receptor [3], the inhibitory constant (Ki) is 0.38 nM.

For orientation: EC50 means the concentration giving half of the maximal effect. The Ki is the equilibrium dissociation constant of an inhibitor or competing ligand from its target.
